Active and inactive are the calls of the source. The rule behind the calls is not given here.

Experiment [1] concerns the target T1, Mitogen-activated protein kinase 14 (Homo sapiens, UniProt Q16539). The experiment can be described thus: Inhibition of p38alpha at 10 uM by immunosorbent based kinase assay.
For experiment [2], the target named is RAC-alpha serine/threonine-protein kinase (Homo sapiens) (UniProt P31749). As to the kind of experiment: Inhibition of AKT1 at 10 uM.
For experiment [3], the target named is T2, Serine/threonine-protein kinase PLK4 (Homo sapiens) (UniProt O00444).
T2 sequence (whole entry): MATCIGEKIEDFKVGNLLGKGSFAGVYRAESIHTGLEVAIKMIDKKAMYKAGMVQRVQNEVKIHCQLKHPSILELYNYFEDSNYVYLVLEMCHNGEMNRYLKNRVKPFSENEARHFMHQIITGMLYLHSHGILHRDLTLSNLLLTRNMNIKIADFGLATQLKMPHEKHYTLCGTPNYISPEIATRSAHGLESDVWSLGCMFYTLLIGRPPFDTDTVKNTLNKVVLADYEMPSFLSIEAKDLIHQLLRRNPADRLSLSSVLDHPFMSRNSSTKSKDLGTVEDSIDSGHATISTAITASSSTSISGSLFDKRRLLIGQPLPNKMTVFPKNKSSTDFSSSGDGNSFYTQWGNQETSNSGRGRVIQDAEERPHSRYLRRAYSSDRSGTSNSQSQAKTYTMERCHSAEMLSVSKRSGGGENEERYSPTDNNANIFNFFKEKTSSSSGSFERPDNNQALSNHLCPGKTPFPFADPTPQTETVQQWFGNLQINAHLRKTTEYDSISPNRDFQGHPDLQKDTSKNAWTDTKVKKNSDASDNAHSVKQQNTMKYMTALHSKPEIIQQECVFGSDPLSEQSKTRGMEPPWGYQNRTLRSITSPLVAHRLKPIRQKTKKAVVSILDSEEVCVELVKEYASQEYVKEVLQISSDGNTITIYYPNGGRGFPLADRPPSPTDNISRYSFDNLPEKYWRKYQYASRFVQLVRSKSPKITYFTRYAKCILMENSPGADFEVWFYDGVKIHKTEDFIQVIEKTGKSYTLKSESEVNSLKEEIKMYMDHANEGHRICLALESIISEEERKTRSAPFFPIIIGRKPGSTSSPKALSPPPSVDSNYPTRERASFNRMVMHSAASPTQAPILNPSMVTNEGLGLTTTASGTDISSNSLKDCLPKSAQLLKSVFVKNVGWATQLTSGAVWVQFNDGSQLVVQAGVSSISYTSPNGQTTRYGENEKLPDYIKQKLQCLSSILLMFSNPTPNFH
As to the kind of experiment: Inhibition of SAK at 10 uM.

In experiment [4] the target is T3, NUAK family SNF1-like kinase 1 (Homo sapiens) (UniProt O60285).
T3 sequence (whole entry): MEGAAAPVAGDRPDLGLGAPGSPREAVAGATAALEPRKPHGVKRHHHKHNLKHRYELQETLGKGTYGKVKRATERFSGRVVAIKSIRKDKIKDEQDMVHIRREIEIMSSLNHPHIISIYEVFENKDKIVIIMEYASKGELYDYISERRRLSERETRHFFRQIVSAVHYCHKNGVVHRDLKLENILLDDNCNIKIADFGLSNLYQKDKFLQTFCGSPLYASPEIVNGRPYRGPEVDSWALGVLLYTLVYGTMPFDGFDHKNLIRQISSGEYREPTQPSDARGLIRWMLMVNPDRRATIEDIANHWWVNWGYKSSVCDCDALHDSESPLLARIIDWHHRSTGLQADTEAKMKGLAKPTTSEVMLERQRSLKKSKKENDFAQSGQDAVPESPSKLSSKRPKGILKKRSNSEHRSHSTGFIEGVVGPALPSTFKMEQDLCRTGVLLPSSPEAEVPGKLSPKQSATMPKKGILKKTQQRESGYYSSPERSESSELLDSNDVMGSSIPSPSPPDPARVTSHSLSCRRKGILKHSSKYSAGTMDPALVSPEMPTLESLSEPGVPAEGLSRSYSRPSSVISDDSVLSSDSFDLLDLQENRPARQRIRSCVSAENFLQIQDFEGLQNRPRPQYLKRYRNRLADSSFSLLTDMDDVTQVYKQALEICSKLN
The experiment can be described thus: Inhibition of ARK5 at 10 uM.

In experiment [5] the target is BDNF/NT-3 growth factors receptor (Homo sapiens) (UniProt Q16620). As to the kind of experiment: Inhibition of TRKB at 10 uM.
Experiment [6] has as its target Aurora kinase B (Homo sapiens) (UniProt Q96GD4). As to the kind of experiment: Inhibition of AuroraB at 10 uM.
In experiment [7] the target is Proto-oncogene tyrosine-protein kinase Src (Homo sapiens) (UniProt P12931). The experiment can be described thus: Inhibition of SRC at 10 uM.
The test system of experiment [8] is Serine/threonine-protein kinase B-raf (Homo sapiens), P15056 [V600E]. As to the kind of experiment: Inhibition of BRAF V600E mutant at 10 uM.
Experiment [9] addresses Vascular endothelial growth factor receptor 2 (Homo sapiens) (UniProt P35968). The experiment can be described thus: Inhibition of VEGFR2 at 10 uM.
Experiment [10] addresses Insulin receptor (Homo sapiens) (UniProt P06213). As to the kind of experiment: Inhibition of INSR at 10 uM.
The target of experiment [11] is Insulin-like growth factor 1 receptor (Homo sapiens) (UniProt P08069). As to the kind of experiment: Inhibition of IGF1R at 10 uM.
The target in experiment [12] is Hepatocyte growth factor receptor (Homo sapiens) (UniProt P08581). The experiment can be described thus: Inhibition of MET at 10 uM.
Experiment [13] addresses Focal adhesion kinase 1 (Homo sapiens) (UniProt Q05397). The experiment can be described thus: Inhibition of FAK at 10 uM.
Experiment [14] addresses Serine/threonine-protein kinase PLK1 (Homo sapiens) (UniProt P53350). As to the kind of experiment: Inhibition of PLK1 at 10 uM.
The target in experiment [15] is Tyrosine-protein kinase receptor UFO (Homo sapiens) (UniProt P30530). The experiment can be described thus: Inhibition of AXL at 10 uM.
In experiment [16] the target is Serine/threonine-protein kinase N1 (Homo sapiens) (UniProt Q16512). As to the kind of experiment: Inhibition of PRK1 at 10 uM.
The target in experiment [17] is Casein kinase II subunit alpha (Homo sapiens) (UniProt P68400). As to the kind of experiment: Inhibition of CK2alpha1 at 10 uM.
Experiment [18] has as its target T1, Mitogen-activated protein kinase 14. As to the kind of experiment: Inhibition of p38alpha by immunosorbent based kinase assay.
Experiment [19] shares this target. As to the kind of experiment: Inhibition of p38alpha-dependent TNFalpha production in human whole blood.

Chain of Serine/threonine-protein kinase PLK1 (Homo sapiens) (P53350 whole entry): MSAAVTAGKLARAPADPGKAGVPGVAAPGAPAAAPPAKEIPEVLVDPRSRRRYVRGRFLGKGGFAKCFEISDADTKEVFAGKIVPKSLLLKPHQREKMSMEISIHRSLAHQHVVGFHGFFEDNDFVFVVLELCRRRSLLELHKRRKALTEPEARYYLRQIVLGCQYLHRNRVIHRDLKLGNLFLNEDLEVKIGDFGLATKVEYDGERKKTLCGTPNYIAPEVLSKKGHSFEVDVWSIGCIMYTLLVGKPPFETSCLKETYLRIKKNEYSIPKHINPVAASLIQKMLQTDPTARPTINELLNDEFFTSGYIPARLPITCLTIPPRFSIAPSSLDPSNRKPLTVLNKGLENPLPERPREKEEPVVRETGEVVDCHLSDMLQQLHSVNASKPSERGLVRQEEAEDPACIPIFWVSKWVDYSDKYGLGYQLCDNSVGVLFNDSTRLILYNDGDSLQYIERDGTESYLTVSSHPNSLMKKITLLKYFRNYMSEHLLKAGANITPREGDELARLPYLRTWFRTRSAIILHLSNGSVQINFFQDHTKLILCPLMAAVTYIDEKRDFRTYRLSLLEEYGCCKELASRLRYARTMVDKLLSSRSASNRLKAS
Chain of Serine/threonine-protein kinase N1 (Homo sapiens) (Q16512 2-942 limits assumed): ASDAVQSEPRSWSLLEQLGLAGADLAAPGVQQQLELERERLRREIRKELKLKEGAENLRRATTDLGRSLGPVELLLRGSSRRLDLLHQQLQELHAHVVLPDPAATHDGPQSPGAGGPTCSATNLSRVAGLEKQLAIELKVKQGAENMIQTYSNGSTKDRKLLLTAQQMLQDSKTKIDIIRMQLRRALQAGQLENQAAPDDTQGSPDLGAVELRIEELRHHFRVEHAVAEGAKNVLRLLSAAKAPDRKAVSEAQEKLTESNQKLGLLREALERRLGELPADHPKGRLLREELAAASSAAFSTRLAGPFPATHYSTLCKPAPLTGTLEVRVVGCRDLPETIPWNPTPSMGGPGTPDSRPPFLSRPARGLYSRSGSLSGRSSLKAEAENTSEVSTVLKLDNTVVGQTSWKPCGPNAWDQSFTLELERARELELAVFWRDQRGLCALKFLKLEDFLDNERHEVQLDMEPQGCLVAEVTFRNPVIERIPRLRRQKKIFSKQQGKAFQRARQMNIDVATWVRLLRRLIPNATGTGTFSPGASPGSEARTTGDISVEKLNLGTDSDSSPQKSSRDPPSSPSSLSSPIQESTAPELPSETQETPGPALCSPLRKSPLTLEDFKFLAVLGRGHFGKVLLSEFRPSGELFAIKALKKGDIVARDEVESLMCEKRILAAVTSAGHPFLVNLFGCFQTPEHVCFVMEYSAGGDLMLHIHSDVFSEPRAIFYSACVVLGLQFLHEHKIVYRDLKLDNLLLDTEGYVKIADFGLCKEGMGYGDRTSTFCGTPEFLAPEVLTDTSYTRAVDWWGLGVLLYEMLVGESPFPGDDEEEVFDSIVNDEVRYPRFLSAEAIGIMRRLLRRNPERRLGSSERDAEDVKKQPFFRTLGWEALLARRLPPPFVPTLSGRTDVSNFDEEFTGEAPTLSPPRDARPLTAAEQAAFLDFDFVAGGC
Chain of Insulin receptor (Homo sapiens) (P06213 28-758 limits assumed): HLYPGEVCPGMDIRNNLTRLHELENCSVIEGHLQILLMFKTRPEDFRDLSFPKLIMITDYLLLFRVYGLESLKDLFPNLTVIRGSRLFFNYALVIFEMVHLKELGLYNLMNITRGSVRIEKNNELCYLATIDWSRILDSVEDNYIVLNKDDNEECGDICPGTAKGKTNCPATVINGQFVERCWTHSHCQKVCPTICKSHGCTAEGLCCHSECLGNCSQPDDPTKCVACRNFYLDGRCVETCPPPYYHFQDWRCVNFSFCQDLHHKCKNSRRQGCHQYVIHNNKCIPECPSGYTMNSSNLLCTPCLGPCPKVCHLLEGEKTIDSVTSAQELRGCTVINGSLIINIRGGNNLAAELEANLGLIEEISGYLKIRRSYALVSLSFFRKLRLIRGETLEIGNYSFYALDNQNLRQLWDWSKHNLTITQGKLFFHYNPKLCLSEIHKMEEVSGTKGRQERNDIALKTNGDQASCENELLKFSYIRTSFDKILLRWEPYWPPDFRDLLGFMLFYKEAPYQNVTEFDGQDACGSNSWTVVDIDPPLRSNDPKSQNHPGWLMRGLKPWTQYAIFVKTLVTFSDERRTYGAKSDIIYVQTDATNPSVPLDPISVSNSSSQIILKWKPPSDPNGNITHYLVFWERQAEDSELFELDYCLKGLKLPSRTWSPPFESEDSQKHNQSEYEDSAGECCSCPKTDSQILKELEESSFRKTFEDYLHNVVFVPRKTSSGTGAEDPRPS
Chain of Insulin receptor (Homo sapiens) (P06213 763-1382 limits assumed): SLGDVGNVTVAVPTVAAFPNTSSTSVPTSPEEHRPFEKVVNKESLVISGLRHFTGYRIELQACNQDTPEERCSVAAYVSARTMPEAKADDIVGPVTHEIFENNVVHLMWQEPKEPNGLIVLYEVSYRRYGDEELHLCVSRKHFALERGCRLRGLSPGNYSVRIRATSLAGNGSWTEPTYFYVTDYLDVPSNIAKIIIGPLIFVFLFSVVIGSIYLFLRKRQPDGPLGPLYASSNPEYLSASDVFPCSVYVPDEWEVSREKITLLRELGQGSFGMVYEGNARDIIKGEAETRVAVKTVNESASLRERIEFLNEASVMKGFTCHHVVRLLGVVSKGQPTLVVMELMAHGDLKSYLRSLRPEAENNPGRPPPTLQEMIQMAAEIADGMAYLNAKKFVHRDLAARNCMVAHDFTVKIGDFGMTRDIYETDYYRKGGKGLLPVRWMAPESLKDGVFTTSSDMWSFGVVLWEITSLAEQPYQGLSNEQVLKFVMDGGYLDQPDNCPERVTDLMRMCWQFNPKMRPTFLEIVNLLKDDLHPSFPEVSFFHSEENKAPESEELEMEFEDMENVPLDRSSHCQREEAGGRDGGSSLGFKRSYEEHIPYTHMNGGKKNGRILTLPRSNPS
Chain of Tyrosine-protein kinase receptor UFO (Homo sapiens) (P30530 whole entry): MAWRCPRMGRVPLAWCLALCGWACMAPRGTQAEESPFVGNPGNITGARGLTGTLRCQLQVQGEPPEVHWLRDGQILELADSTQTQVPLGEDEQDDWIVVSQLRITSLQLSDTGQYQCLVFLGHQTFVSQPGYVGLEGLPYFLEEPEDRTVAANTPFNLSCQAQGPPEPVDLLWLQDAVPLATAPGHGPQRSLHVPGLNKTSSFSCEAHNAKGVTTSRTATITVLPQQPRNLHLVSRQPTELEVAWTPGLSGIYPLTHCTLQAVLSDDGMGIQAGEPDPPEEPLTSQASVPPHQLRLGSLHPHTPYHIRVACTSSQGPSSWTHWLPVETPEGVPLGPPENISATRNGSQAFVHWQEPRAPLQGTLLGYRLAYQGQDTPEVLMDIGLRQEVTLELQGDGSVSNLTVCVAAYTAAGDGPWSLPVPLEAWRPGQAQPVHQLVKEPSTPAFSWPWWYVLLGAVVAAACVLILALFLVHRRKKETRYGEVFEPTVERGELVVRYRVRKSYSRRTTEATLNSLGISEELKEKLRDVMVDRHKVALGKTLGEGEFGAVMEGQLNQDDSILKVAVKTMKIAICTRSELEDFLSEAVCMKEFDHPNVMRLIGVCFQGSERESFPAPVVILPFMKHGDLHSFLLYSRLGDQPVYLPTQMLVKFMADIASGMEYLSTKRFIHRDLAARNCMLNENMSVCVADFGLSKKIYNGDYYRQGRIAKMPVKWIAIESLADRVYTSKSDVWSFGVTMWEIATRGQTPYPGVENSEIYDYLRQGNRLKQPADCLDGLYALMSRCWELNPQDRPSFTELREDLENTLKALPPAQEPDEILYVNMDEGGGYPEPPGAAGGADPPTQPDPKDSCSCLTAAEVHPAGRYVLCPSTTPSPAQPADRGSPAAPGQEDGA
Chain of Focal adhesion kinase 1 (Homo sapiens) (Q05397 2-1052 limits assumed): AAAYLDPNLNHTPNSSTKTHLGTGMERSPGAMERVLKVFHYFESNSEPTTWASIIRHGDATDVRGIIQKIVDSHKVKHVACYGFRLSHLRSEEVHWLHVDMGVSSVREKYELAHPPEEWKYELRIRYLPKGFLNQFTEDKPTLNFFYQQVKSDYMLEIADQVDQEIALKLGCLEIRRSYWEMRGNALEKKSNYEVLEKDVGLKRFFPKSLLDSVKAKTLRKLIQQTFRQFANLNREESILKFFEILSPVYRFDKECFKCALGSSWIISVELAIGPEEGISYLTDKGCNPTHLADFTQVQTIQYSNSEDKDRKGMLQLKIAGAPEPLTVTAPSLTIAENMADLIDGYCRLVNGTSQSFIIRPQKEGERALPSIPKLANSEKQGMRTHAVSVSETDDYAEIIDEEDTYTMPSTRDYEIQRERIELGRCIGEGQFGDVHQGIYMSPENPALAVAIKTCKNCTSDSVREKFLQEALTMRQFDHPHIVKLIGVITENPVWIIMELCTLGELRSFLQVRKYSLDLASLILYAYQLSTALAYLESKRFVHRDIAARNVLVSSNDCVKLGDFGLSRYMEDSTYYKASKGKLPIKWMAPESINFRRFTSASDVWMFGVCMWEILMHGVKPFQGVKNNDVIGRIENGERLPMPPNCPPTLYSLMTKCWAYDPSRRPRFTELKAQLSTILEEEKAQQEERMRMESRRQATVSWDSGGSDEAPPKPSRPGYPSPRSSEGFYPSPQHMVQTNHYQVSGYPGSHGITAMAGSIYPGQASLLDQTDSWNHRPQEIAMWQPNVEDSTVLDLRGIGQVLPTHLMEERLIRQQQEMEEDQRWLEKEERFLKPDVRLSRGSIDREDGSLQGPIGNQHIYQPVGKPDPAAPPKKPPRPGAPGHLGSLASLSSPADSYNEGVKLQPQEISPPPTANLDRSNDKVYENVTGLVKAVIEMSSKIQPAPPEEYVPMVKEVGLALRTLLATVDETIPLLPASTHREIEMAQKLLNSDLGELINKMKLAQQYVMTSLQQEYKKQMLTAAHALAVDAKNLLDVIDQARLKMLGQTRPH

For `COc1ccc2c(c1)C(=O)c1ccc(-c3ccccc3)cc1CC2`, the inhibition in [1] came to 32%. Also, the inhibition entry in experiment [2], in experiment [3], in experiment [4], in [5], in experiment [6] and in experiment [7] was “inactive” throughout. The inhibition entry in experiment [8], in experiment [9], in experiment [10], in [11], in experiment [12] and in experiment [13] was “inactive” each time. The inhibition result in experiment [14], in experiment [15], in [16] and in experiment [17] was “inactive” in each case.
Consider `O=C1c2ccc(Nc3ccc(F)cc3F)cc2CCc2cc(OC[C@@H](O)CO)ccc21`, for which the figures for the IC50 in experiment [18] and in experiment [19] were 5 nM and 5200 nM, respectively. Moreover, the inhibition result in experiment [2], in experiment [3], in experiment [4], in experiment [5], in experiment [6] and in experiment [7] was “inactive” throughout. Also, the inhibition entry in experiment [8], in [9], in experiment [10], in experiment [11], in [12] and in experiment [13] was “inactive” in each case. Moreover, the inhibition result in experiment [14], in experiment [15], in experiment [16] and in experiment [17] was “inactive” in each case.
For the compound `CC1(C)OC[C@H](COc2ccc3c(c2)CCc2cc(Nc4ccc(F)cc4F)ccc2C3=O)O1`, the IC50 was 20 nM in experiment [18] and 170000 nM in experiment [19]. The inhibition result in experiment [2], in experiment [3], in experiment [4], in experiment [5], in [6] and in experiment [7] was “inactive” each time. The inhibition result in [8], in experiment [9], in experiment [10], in [11], in [12] and in experiment [13] was “inactive” throughout. The inhibition entry in [14], in [15], in [16] and in experiment [17] was “inactive” each time.
For the compound `CC1(C)OC[C@@H](COc2ccc3c(c2)CCc2cc(Nc4ccc(F)cc4F)ccc2C3=O)O1`, the IC50 is 360 nM in experiment [18] and 123000 nM in experiment [19]. For the same compound, the inhibition result in experiment [2], in experiment [3], in experiment [4], in experiment [5], in experiment [6] and in experiment [7] was “inactive” each time. In addition, the inhibition result in experiment [8], in experiment [9], in experiment [10], in [11], in experiment [12] and in [13] was “inactive” throughout. For the same compound, the inhibition entry in [14], in experiment [15], in experiment [16] and in [17] was “inactive” throughout.

What is called inhibition is how much of the control response was suppressed. What is called IC50 is the concentration that inhibits the measured activity by half. Read a high IC50 as lower potency.

Source of the values: ChEMBL document CHEMBL2150974 (J Med Chem, 2012).
